For 24 compounds, IC50 and viability results are on record in ChEMBL document CHEMBL5257068, “Synthesis and biological evaluation of DIDS analogues as efficient inhibitors of RAD51 involved in homologous recombination” (Bioorg Med Chem Lett, 2023).

For assay [1], the target named is T1, DNA repair protein RAD51 homolog 1 (Homo sapiens, UniProt Q06609).
T1 sequence (Q06609 whole entry): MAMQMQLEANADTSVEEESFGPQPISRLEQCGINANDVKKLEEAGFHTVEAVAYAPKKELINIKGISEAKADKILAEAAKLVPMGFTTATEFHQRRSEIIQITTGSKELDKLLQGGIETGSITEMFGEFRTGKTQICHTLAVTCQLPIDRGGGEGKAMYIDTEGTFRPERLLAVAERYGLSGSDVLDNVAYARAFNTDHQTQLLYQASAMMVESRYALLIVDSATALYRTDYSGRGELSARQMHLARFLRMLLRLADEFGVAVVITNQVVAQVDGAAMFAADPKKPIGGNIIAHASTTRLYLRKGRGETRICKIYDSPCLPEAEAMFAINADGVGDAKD
Briefly: Inhibition of RAD51 (unknown origin) mediated homologous recombination.

Assay [2] has as its target T1, DNA repair protein RAD51 homolog 1. The assay can be described thus: Inhibition of wild type human RAD51 expressed in Escherichia coli BL21-DE3 using 100 bp ssDNA probe as substrate assessed as prevention of D-loop formation preincubated for 5 mins followed by plasmid DNA addition and measured after 15 mins by agarose gel electrophoresis method.
The target is the same in assay [3]. Briefly: Inhibition of RAD51 (unknown origin) using labeled 100-ss DNA as substrate assessed as reduction in DNA D-loop formation by [gamma-32P]ATP based scintillation counter method.
Assay [4] has as its system DU-145. The assay can be described thus: Cytotoxicity against human DU-145 cells overexpressing RAD51 assessed as cell viability at 50 uM incubated for 72 hrs by MTT assay relative to control. As to conditions: read-out: Activity. In kind it is functional.
Assay [5] concerns the target T1, DNA repair protein RAD51 homolog 1. The assay can be described thus: Inhibition of RAD51 (unknown origin) assessed as reduction in novel 58/33-dsDNA formation incubated for 1 hr by electrophoresis based DNA strand exchange assay.
The subject of assay [6] is DU-145. Briefly: Cytotoxicity against human DU-145 cells overexpressing RAD51 assessed as cell viability at 10 uM incubated for 72 hrs by MTT assay relative to control. Type of assay: functional. As to conditions: read-out: Activity. (Tetrazolium dyes change colour on reduction, which living cells bring about.)
Assay [7] has as its system DU-145. The assay can be described thus: Cytotoxicity against human DU-145 cells overexpressing RAD51 assessed as cell viability at 1 uM incubated for 72 hrs by MTT assay relative to control. Type of assay: functional. As to conditions: read-out: Activity.

Each structure is given as a SMILES string.

As usually defined, the IC50 is the concentration that gives 50% inhibition. On to `O=C1C(Cl)=C(N2CCOCC2)C(=O)N1c1ccc(Cl)c(Cl)c1`, for which the IC50 in assay [1] came out at 20 µM.

Consider `O=S(=O)(O)c1cc(N=C=S)ccc1/C=C/c1ccc(N=C=S)cc1S(=O)(=O)O`, for which the 50% inhibitory concentration (IC50) in assay [2] was 0.9 µM; in assay [3], 0.9 µM; in assay [5] it was 0.75 µM. Moreover, the viability at 50 µM in the assay on DU-145 [4] was 83%. In the assay on DU-145 [6], the viability at 10 µM was 87%. Besides, the viability at 1 µM in the assay with DU-145 [7] was 90%.

For the compound `O=c1c2ccccc2nc(/C=C/c2cccnc2)n1Cc1ccccc1`, in the assay with DU-145 [4], the viability at 50 µM came to 9%. The viability at 10 µM in the assay on DU-145 [6] turned out to be 79%. Also, in the assay on DU-145 [7], the viability at 1 µM came to 95%.

With `O=S(=O)(O)c1cc(I)ccc1/C=C/c1ccc(I)cc1S(=O)(=O)O`, the viability at 50 µM in the assay on DU-145 [4] came to 84%. The IC50 in assay [5] is 17.5 µM. Moreover, the viability at 10 µM with DU-145 [6] amounted to 89%. In addition, the viability at 1 µM in the assay with DU-145 [7] was 91%.

For the compound `N#Cc1ccc(CCc2ccc(C#N)cc2S(=O)(=O)O)c(S(=O)(=O)O)c1`, the IC50 in assay [3] was greater than 50 µM.

Consider `[N-]=[N+]=Nc1ccc(/C=C/c2ccc(N=[N+]=[N-])cc2S(=O)(=O)O)c(S(=O)(=O)O)c1`, for which the IC50 in assay [2] is 44.3 µM; in assay [3], 21.5 µM; in assay [5] it was 10 µM. Moreover, the viability at 50 µM in the assay on DU-145 [4] was 93%. For the same compound, in the assay on DU-145 [6], the viability at 10 µM was found to be 94%. For the same compound, the viability at 1 µM in the assay on DU-145 [7] amounted to 87%.

For the compound `N#Cc1ccc(/C=C/c2ccc([N+](=O)[O-])cc2S(=O)(=O)O)c(S(=O)(=O)O)c1`, the IC50 in assay [3] is 20 µM. Besides, the viability at 50 µM with DU-145 [4] was found to be 88%. The viability at 10 µM in the assay on DU-145 [6] amounted to 85%. Besides, the viability at 1 µM with DU-145 [7] stood at 90%.

As for `[N-]=[N+]=Nc1ccc(/C=C/c2ccc(N=[N+]=[N-])cc2)cc1`, the IC50 in assay [3] is greater than 50 µM.

For `O=C(Nc1ccc(CCc2ccc(NC(=O)Oc3ccccc3)cc2S(=O)(=O)O)c(S(=O)(=O)O)c1)Oc1ccccc1`, the IC50 in assay [3] turned out to be 30 µM.

For the compound `CCOC(=O)Nc1ccc(/C=C/c2ccc(NC(=O)OCC)cc2S(=O)(=O)O)c(S(=O)(=O)O)c1`, in assay [5], the IC50 is greater than 50 µM.

Regarding `COS(=O)(=O)c1cc(NC(=O)Oc2ccccc2)ccc1/C=C/c1ccc(NC(=O)Oc2ccccc2)cc1S(=O)(=O)OC`, in assay [3], the IC50 is greater than 50 µM.

For `COc1ccc(C(=O)Nc2ccc(/C=C/c3ccc(NC(=O)c4ccc(OC)cc4)cc3S(=O)(=O)O)c(S(=O)(=O)O)c2)cc1`, the IC50 is 6.5 µM in assay [3] and 3 µM in assay [5]. In addition, in the assay with DU-145 [4], the viability at 50 µM amounted to 100%.

For the compound `O=S(=O)(Nc1ccc(/C=C/c2ccc(NS(=O)(=O)c3ccccc3)cc2)cc1)c1ccccc1`, the IC50 in assay [3] is greater than 50 µM.

For the compound `Cc1ccc(S(=O)(=O)Nc2ccc(/C=C/c3ccc(NS(=O)(=O)c4ccc(C)cc4)cc3S(=O)(=O)O)c(S(=O)(=O)O)c2)cc1`, the viability at 50 µM with DU-145 [4] turned out to be 100%. Also, the viability at 10 µM in the assay with DU-145 [6] was 100%. For the same compound, in the assay with DU-145 [7], the viability at 1 µM worked out at 100%.

`CC(C)COC(=O)Nc1ccc(/C=C/c2ccc(NC(=O)OCC(C)C)cc2S(=O)(=O)O)c(S(=O)(=O)O)c1`: the IC50 in assay [3] is greater than 50 µM.

Take `N#Cc1ccc(/C=C/c2ccc(C#N)cc2S(=O)(=O)O)c(S(=O)(=O)O)c1`: the IC50 in assay [3] was 4.9 µM; in assay [5], 1.3 µM. Besides, in the assay on DU-145 [4], the viability at 50 µM is 100%. Also, the viability at 10 µM with DU-145 [6] came out at 94%. Besides, in the assay on DU-145 [7], the viability at 1 µM amounted to 99%.

As for `CC(=O)Nc1ccc(/C=C/c2ccc(NC(C)=O)cc2S(=O)(=O)O)c(S(=O)(=O)O)c1`, the half-maximal inhibitory concentration (IC50) in assay [5] is greater than 50 µM.

On to `O=[N+]([O-])c1ccc(S(=O)(=O)Nc2ccc(/C=C/c3ccc(NS(=O)(=O)c4ccc([N+](=O)[O-])cc4)cc3S(=O)(=O)O)c(S(=O)(=O)O)c2)cc1`, for which the IC50 in assay [3] is greater than 50 µM.

Consider `O=C(Nc1ccc(/C=C/c2ccc(NC(=O)c3ccccc3)cc2S(=O)(=O)O)c(S(=O)(=O)O)c1)c1ccccc1`, for which the viability at 50 µM in the assay with DU-145 [4] was determined as 100%. The IC50 in assay [5] was greater than 50 µM. The viability at 10 µM in the assay on DU-145 [6] worked out at 100%. Besides, the viability at 1 µM with DU-145 [7] was found to be 100%.

As for `CCC(=O)Nc1ccc(/C=C/c2ccc(NC(=O)CC)cc2S(=O)(=O)O)c(S(=O)(=O)O)c1`, the IC50 in assay [5] was greater than 50 µM.

For the compound `O=C(Nc1ccc(/C=C/c2ccc(NC(=O)Oc3ccccc3)cc2)cc1)Oc1ccccc1`, the 50% inhibitory concentration (IC50) in assay [3] amounted to 30.5 µM.

As for `O=C(Nc1ccc(/C=C/c2ccc(NC(=O)Oc3ccccc3)cc2S(=O)(=O)O)c(S(=O)(=O)O)c1)Oc1ccccc1`, the half-maximal inhibitory concentration (IC50) in assay [3] turned out to be 2.3 µM; in assay [5] it was 3.8 µM. Besides, the viability at 50 µM in the assay with DU-145 [4] came out at 87%. In addition, the viability at 10 µM with DU-145 [6] turned out to be 100%. In addition, the viability at 1 µM in the assay with DU-145 [7] stood at 100%.

For `O=[N+]([O-])c1ccc(/C=C/c2ccc([N+](=O)[O-])cc2S(=O)(=O)O)c(S(=O)(=O)O)c1`, in assay [3], the concentration for half-maximal inhibition (IC50) was greater than 50 µM.

For `CC(=O)Nc1ccc(/C=C/c2ccc(N=C=S)cc2S(=O)(=O)O)c(S(=O)(=O)O)c1`, the 50% inhibitory concentration (IC50) in assay [2] and in assay [3] was 29 µM each time.
